Data as given in ChEMBL document CHEMBL1128575, “Nonpeptidic inhibitors of human leukocyte elastase. 5. Design, synthesis, and X-ray crystallography of a series of orally active 5-aminopyrimidin-6-one-containing trifluoromethyl ketones” (J Med Chem, 1995).
In brackets after ≈: the same amount, converted by molar mass. Activity calls are given as the source filed them. The rule behind the calls is not given here.

Experiments:
Cricetinae gen. sp. [1] = experiment: Oral dose of 2.5 mg/Kg (30 min prior to instillation of elastase) was tested for the inhibition of elastase-induced lung hemorrhage in hamster; Not active; assay type: functional, organism-based; conditions: Cricetulus griseus
Neutrophil elastase = target: T1, Neutrophil elastase (Homo sapiens, UniProt P08246); experiment: In vitro inhibition of human leukocyte elastase mediated hydrolysis of the synthetic substrate MeO-Suc-Ala-Ala-Pro-Val-pNA
T1 sequence (P08246 whole entry): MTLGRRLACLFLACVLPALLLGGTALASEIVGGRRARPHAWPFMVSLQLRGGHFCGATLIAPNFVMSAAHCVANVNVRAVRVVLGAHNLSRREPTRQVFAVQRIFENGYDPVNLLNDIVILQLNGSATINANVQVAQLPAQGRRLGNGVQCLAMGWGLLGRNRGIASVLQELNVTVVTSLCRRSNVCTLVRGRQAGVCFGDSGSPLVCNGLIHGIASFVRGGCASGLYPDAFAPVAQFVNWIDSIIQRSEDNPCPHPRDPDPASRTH

[2] = Partition coefficient (logP); assay type: physicochemical; conditions: octanol/water
Cricetinae gen. sp. [3] = experiment: Oral dose of 20 mg/Kg (30 min prior to instillation of elastase) was tested for the inhibition of elastase-induced lung hemorrhage in hamster; Not active; assay type: functional, organism-based; conditions: Cricetulus griseus
[4] = Solubility of compound in 0.01 M sodium phosphate buffer at pH = […]; assay type: physicochemical; conditions: pH 7.4
Cricetinae gen. sp. [5] = experiment: Oral dose of 20 mg/Kg (30 min prior to instillation of elastase) was tested for the inhibition of elastase-induced lung hemorrhage in hamster; assay type: functional, Cricetulus griseus
Cricetinae gen. sp. [6] = experiment: Oral dose of 2.5 mg/Kg (90 min prior to instillation of elastase) was tested for the inhibition of elastase-induced lung hemorrhage in hamster; assay type: functional, Cricetulus griseus
Cricetinae gen. sp. [7] = experiment: Compound at an oral dose of 20 mg/Kg (90 min prior to instillation of elastase) was tested for the inhibition of elastase-induced lung hemorrhage in hamster; assay type: functional, Cricetulus griseus
[8] = Selectivity ratio for bovine pancreatic chymotrypsin and HLE
Cricetinae gen. sp. [9] = experiment: Oral dose of 2.5 mg/Kg (30 min prior to instillation of elastase) was tested for the inhibition of elastase-induced lung hemorrhage in hamster; assay type: functional, Cricetulus griseus
[10] = Area under the concentration vs time curve in rat at 10 mg/kg oral dose; assay type: ADME, organism-based; set-up: dose 10 mg/kg, route oral; conditions: in vivo
[11] = Area under the concentration vs time curve in dog at 10 mg/kg oral dose; assay type: ADME, organism-based, Canis lupus familiaris; set-up: dose 10 mg/kg, route oral; conditions: in vivo
[12] = Maximum concentration in plasma recorded in the period 0-6 hr post dose in hamster at 10 mg/kg oral dose; assay type: ADME, organism-based; set-up: dose 10 mg/kg, route oral; conditions: cricetinae
[13] = Maximum concentration in plasma recorded in the period 0-6 hr post dose in rat at 10 mg/kg oral dose; assay type: ADME, organism-based; set-up: dose 10 mg/kg, route oral
[14] = Maximum concentration in plasma recorded 0-6 hr post dose in dog at 10 mg/kg oral dose; assay type: ADME, organism-based, Canis lupus familiaris; set-up: dose 10 mg/kg, route oral
[15] = Tmax is the time of maximum concentration in rat at 10 mg/kg oral dose; assay type: ADME, organism-based; set-up: dose 10 mg/kg, route oral; conditions: in vivo
[16] = Tmax is the time of maximum concentration in hamster at 10 mg/kg oral dose; assay type: ADME, organism-based; set-up: dose 10 mg/kg, route oral; conditions: cricetinae, in vivo
[17] = Half life in plasma in dog at 10 mg/kg oral dose; assay type: ADME, organism-based, Canis lupus familiaris; set-up: dose 10 mg/kg, route oral
[18] = Half life in plasma in hamster at 10 mg/kg oral dose; assay type: ADME, organism-based; set-up: dose 10 mg/kg, route oral; conditions: cricetinae
[19] = Half life in plasma in rat at 10 mg/kg oral dose; assay type: ADME, organism-based; set-up: dose 10 mg/kg, route oral
[20] = Tmax is the time of maximum concentration in dog at 10 mg/kg oral dose; assay type: ADME, organism-based, Canis lupus familiaris; set-up: dose 10 mg/kg, route oral; conditions: in vivo
[21] = Area under the concentration vs time curve in hamster at 10 mg/kg oral dose; assay type: ADME, organism-based; set-up: dose 10 mg/kg, route oral; conditions: cricetinae, in vivo

Row | Compound | Ki (Neutrophil elastase) [nM] | inhibition (Cricetinae gen. sp. [3]) | inhibition in vivo at 20 mg/kg (Cricetinae gen. sp. [5]) [%] | Ratio [8] | also measured
1 | COC(=O)Nc1cnc(-c2ccc(F)cc2)n(CC(=O)NC(B2OC(C)(C)C(C)(C)O2)C(C)C)c1=O (stereo unspecified) | 7.7 |  |  |  | inhibition (Cricetinae gen. sp. [1]): inactive
2 | CC(C)C(NC(=O)Cn1c(C2CCCCC2)ncc(NC(=O)OCc2ccccc2)c1=O)C(=O)C(F)(F)F (stereo unspecified) | 57 | inactive |  |  | logP [2]: 2.9; solubility [4]: 42 µg/mL (≈ 78.3 µM)
3 | CC(C)C(NC(=O)Cn1c(-c2cccs2)ncc(N)c1=O)B1OC(C)(C)C(C)(C)O1 (stereo unspecified) | 4.9 |  | 50 |  | inhibition (Cricetinae gen. sp. [1]): inactive
4 | Cc1cncc(C)c1COC(=O)Nc1cnc(-c2ccc(F)cc2)n(CC(=O)NC(B2OC(C)(C)C(C)(C)O2)C(C)C)c1=O (stereo unspecified) | 0.96 |  |  |  | inhibition (Cricetinae gen. sp. [1]): inactive
5 | CC(C)C(NC(=O)Cn1c(-c2ccccc2)ncc(NC(=O)OCC(F)(F)F)c1=O)C(=O)C(F)(F)F (stereo unspecified) | 40 |  |  |  | inhibition in vivo at 2.5 mg/kg (Cricetinae gen. sp. [6]): 39%; inhibition in vivo at 20 mg/kg (Cricetinae gen. sp. [7]): 47%
6 | CC(C)C(NC(=O)Cn1c(-c2cccs2)ncc(NC=O)c1=O)C(=O)C(F)(F)F (stereo unspecified) | 100 |  |  |  | inhibition in vivo at 2.5 mg/kg (Cricetinae gen. sp. [6]): 37%; inhibition in vivo at 20 mg/kg (Cricetinae gen. sp. [7]): 58%
7 | CC(C)C(NC(=O)Cn1c(-c2ccc(NC=O)cc2)ncc(NC(=O)OCc2ccccc2)c1=O)C(=O)C(F)(F)F (stereo unspecified) | 9 | inactive |  |  | 
8 | COc1ccc(-c2ncc(NC(=O)OCc3ccccc3)c(=O)n2CC(=O)NC(C(=O)C(F)(F)F)C(C)C)cc1 (stereo unspecified) | 8.1 | inactive |  | 272 | 
9 | CC(C)C(NC(=O)Cn1c(-c2ccc(Cl)cc2)ncc(NC(=O)OCc2ccccc2)c1=O)C(=O)C(F)(F)F (stereo unspecified) | 18 | inactive |  | 322 | 
10 | CC(C)C(NC(=O)Cn1c(-c2ccc([N+](=O)[O-])cc2)ncc(NC(=O)OCc2ccccc2)c1=O)C(=O)C(F)(F)F (stereo unspecified) | 17 | inactive |  | 406 | 
11 | CC(C)C(NC(=O)Cn1c(-c2ccc(NC(=O)C(F)(F)F)cc2)ncc(NC(=O)OCc2ccccc2)c1=O)C(=O)C(F)(F)F (stereo unspecified) | 43 | inactive |  |  | 
12 | CC(C)c1ncc(NC(=O)OCc2ccccc2)c(=O)n1CC(=O)NC(C(=O)C(F)(F)F)C(C)C (stereo unspecified) | 170 | inactive |  | 100 | logP [2]: 2.6; solubility [4]: 40 µg/mL (≈ 80.6 µM)
13 | CCNc1cnc(-c2cccs2)n(CC(=O)NC(C(=O)C(F)(F)F)C(C)C)c1=O (stereo unspecified) | 26 |  | 52 |  | inhibition in vivo at 2.5 mg/kg (Cricetinae gen. sp. [6]): 32%
14 | CC(C)C(NC(=O)Cn1c(-c2cccs2)ncc(NC(=O)OC(C)(C)C)c1=O)C(=O)C(F)(F)F (stereo unspecified) | 27 |  | 92 |  | inhibition in vivo at 2.5 mg/kg (Cricetinae gen. sp. [6]): 33%; inhibition in vivo at 2.5 mg/kg (Cricetinae gen. sp. [9]): 50%
15 | CC(C)C(NC(=O)Cn1c(-c2ccc(F)cc2)ncc(NC(=O)OCc2ccncc2)c1=O)C(=O)C(F)(F)F (stereo unspecified) | 23 | inactive |  |  | 
16 | CC(C)C(NC(=O)Cn1c(-c2cccs2)ncc(NC(=O)OCc2ccccc2)c1=O)C(=O)C(F)(F)F (stereo unspecified) | 11 |  | 57 | 162 | logP [2]: 2; solubility [4]: 48 µg/mL (≈ 89.5 µM)
17 | CC(C)C(NC(=O)Cn1c(-c2ccc(F)cc2)ncc(N)c1=O)C(=O)C(F)(F)F (stereo unspecified) |  |  | 66 |  | AUC [10]: 5170 ng·h/mL; AUC [11]: 5950 ng·h/mL; inhibition in vivo at 2.5 mg/kg (Cricetinae gen. sp. [6]): 49%; Cmax [12]: 750 ng/mL; Cmax [13]: 1900 ng/mL; Cmax [14]: 3230 ng/mL; Tmax [15]: 1 h; Tmax [16]: 0.25 h; half-life [17]: 0.967 h; half-life [18]: 1.35 h; half-life [19]: 1.6 h; inhibition in vivo at 2.5 mg/kg (Cricetinae gen. sp. [9]): 43%; Tmax [20]: 1 h; AUC [21]: 1190 ng·h/mL
18 | CC(C)C(NC(=O)Cn1c(-c2ccc(N)cc2)ncc(NS(C)(=O)=O)c1=O)C(=O)C(F)(F)F (stereo unspecified) |  | inactive |  |  | 
19 | CC(C)C(NC(=O)Cn1c(-c2ccc(F)cc2)ncc(NC(=O)OCc2ccccc2)c1=O)C(=O)C(F)(F)F (stereo unspecified) |  |  | 54 |  | logP [2]: 2.2; solubility [4]: 6.9 µg/mL (≈ 12.6 µM)
20 | CC(C)C(NC(=O)Cn1c(-c2cc(F)cc(F)c2)ncc(NC(=O)OCc2ccccc2)c1=O)C(=O)C(F)(F)F (stereo unspecified) | 20 |  | 43 | 230 | 
